From ChEMBL document CHEMBL3217496, “Inhibitors of Stat5 protein signalling” (Medchemcomm, 2012)

Columns and labels:
BaF3 = test: Cytotoxicity against mouse BAF3 cells expressing JAK2 V617F mutant after 48 hrs by CellTiterGlo assay; assay type: functional, cell-based; settings: BaF3, 48 h
[1] = target: T1, Signal transducer and activator of transcription 5A (Homo sapiens, UniProt P42229); test: Inhibition of STAT5 (unknown origin)
T1 sequence (P42229 whole entry): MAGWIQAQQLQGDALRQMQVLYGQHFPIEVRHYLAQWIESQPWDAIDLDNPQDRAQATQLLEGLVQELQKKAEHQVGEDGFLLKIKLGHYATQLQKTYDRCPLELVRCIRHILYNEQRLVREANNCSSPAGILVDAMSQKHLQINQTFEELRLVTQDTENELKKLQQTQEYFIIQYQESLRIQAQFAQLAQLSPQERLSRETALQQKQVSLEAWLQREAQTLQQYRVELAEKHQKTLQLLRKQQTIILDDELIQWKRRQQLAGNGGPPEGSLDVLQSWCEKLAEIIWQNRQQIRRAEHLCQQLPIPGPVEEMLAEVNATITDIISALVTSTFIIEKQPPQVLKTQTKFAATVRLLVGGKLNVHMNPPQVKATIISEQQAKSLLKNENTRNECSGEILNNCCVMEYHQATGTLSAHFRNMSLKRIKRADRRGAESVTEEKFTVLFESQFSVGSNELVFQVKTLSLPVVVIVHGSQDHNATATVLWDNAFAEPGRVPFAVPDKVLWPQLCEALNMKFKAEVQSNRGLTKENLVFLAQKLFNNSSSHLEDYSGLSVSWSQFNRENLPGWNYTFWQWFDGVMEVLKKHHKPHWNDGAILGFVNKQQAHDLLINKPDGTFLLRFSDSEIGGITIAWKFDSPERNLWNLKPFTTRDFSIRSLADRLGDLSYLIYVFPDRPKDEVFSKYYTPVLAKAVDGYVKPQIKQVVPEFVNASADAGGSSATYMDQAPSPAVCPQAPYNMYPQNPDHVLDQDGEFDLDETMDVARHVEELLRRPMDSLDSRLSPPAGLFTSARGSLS

[2] = target: Signal transducer and activator of transcription 3 (Homo sapiens, UniProt P40763); test: Inhibition of STAT3 (unknown origin)
[3] = target: T2, Signal transducer and activator of transcription 1-alpha/beta (Homo sapiens, UniProt P42224); test: Inhibition of STAT1 (unknown origin)
T2 sequence (P42224 whole entry): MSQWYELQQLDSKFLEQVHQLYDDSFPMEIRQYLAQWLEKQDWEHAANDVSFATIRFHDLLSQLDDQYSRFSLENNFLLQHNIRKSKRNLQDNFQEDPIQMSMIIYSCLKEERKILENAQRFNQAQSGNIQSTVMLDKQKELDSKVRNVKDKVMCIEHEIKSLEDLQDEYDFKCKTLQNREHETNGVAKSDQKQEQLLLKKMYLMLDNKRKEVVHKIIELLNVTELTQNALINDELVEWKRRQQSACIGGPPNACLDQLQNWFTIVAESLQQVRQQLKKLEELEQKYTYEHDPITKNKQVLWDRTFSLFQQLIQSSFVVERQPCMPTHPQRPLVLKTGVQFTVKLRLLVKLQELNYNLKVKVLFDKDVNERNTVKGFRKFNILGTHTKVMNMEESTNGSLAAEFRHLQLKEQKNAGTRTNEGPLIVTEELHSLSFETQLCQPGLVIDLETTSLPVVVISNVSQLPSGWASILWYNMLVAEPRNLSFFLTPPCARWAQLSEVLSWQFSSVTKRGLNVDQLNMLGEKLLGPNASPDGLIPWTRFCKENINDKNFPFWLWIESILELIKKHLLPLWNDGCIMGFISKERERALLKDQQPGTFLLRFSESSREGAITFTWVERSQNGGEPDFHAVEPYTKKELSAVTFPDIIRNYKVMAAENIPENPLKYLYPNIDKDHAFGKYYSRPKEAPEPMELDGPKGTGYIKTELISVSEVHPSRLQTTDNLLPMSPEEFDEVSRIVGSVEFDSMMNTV

[4] = target: Tyrosine-protein kinase JAK2 (Mus musculus, UniProt Q62120, V617F); test: Inhibition of JAK2 V617F mutant in mouse BAF3 cells; assay type: cell-based
cells = settings: Homo sapiens, EOL1
Description: Antiproliferative activity against human EOL-1 cells by CellTiterGlo assay

[5] = target: T1, Signal transducer and activator of transcription 5A; test: Inhibition of STAT5 DNA binding activity in human K562 cells after 24 hrs by electrophoretic mobility shift assay; assay type: cell-based

Tyrosine-protein kinase JAK2, sequence (Q62120 as listed by the source V617F): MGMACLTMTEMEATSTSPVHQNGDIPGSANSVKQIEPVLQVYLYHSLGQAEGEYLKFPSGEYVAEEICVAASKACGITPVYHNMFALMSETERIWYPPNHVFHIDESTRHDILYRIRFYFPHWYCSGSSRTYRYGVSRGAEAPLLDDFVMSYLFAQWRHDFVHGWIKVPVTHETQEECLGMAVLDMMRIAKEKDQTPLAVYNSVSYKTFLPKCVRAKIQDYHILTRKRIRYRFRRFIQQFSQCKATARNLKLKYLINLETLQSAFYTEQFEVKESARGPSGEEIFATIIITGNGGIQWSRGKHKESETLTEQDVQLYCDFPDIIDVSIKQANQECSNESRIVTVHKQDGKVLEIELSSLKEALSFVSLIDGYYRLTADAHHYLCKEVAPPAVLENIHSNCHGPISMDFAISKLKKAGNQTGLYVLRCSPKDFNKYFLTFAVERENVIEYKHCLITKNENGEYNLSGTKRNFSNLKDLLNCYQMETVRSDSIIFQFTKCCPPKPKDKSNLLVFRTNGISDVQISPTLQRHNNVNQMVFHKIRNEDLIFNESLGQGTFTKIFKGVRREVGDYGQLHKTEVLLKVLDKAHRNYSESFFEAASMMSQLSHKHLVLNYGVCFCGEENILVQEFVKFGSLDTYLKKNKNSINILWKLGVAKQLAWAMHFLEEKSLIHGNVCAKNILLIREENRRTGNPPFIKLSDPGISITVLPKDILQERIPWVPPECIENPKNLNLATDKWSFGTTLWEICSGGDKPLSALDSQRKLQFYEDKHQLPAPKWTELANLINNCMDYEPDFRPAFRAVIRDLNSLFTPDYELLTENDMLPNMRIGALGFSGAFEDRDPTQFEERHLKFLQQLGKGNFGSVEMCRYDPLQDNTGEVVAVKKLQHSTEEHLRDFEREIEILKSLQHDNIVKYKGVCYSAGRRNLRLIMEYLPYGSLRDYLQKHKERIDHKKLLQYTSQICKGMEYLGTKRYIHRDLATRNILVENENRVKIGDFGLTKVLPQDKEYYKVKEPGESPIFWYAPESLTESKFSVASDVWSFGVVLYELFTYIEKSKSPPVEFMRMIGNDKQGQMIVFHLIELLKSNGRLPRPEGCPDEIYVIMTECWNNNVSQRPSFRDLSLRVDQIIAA
Signal transducer and activator of transcription 3, sequence (P40763 whole entry): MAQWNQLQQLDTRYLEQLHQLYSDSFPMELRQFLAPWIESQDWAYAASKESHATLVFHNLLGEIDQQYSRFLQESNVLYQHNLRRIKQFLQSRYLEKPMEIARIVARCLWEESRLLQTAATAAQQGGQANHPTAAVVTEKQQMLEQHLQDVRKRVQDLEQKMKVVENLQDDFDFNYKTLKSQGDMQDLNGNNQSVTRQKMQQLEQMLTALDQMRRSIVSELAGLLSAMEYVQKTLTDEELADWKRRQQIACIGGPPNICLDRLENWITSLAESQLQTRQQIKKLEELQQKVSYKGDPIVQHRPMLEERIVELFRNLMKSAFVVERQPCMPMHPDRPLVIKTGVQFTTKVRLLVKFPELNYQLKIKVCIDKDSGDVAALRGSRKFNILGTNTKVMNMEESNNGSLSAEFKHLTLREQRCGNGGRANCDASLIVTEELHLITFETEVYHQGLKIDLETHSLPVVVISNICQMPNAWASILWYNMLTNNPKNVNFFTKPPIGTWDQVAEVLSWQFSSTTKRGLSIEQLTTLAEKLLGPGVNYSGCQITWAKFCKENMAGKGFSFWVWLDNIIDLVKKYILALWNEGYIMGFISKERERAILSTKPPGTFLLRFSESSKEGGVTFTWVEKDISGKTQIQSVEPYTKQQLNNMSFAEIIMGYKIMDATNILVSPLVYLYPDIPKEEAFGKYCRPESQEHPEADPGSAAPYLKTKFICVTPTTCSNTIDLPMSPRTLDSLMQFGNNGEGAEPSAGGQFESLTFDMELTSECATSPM

N#CC[C@H](C1CCCC1)n1cc(-c2ncnc3[nH]ccc23)cn1 [RUXOLITINIB]
IC50 (BaF3): 0.126 µM

O=C(N/N=C/c1coc2ccccc2c1=O)c1cccnc1
IC50 [1]: 47 µM
IC50 [2]: 180 µM
IC50 [3]: 130 µM

N#CCNC(=O)c1ccc(-c2ccnc(Nc3ccc(N4CCOCC4)cc3)n2)cc1 [MOMELOTINIB]
IC50 [4]: 1.5 µM

CNC(=O)c1cc(Oc2ccc(NC(=O)Nc3ccc(Cl)c(C(F)(F)F)c3)cc2)ccn1 [SORAFENIB]
IC50 (cells): 0.0023 µM

Cc1cc(Nc2ncc3cc(-c4c(Cl)cccc4Cl)c(=O)n(C)c3n2)ccc1F
IC50 [5]: 0.005 µM
